Assay results as given in the supplement of paper PMC10307832.

What was measured:
Assay in all cases: relative viability (nuclei count vs DMSO), 5 days (fraction); higher = more cells survive
Kobe2602 + Trametinib = compound: C1=CC(=CC=C1NC(=S)NNC2=C(C=C(C=C2[N+](=O)[O-])C(F)(F)F)[N+](=O)[O-])F [Kobe2602] + CC(=O)Nc1cccc(-n2c(=O)n(C3CC3)c(=O)c3c(Nc4ccc(I)cc4F)n(C)c(=O)c(C)c32)c1 [Trametinib] (partner 0.02 µM)
In short: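 Relative viability equals treated-well nuclei counts divided by vehicle-well nuclei counts. Counts came from 4× images of lung cancer cell lines grown in 1536-well plates for 5 days after pin-tool dosing on the day after seeding. Dosing used one drug alone or a fixed anchor-drug dose plus five library-drug doses (not always all listed) in √10 steps, and values are medians of duplicate plates.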

Kobe2602 = compound: C1=CC(=CC=C1NC(=S)NNC2=C(C=C(C=C2[N+](=O)[O-])C(F)(F)F)[N+](=O)[O-])F [Kobe2602]
In short: (§1)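 For viability, nuclei in each treated well were divided by nuclei in vehicle wells and the median across plates was taken. Lung cancer cell lines in 1536-well plates were pinned with five library-drug doses (not always all listed) spaced by √10, cultured 5 days without medium change, and imaged at 4× after Hoechst staining, with plates passing only at control CV below 25% and at least one doubling.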

Zosuquidar = compound: O[C@@H](COc1cccc2ncccc12)CN1CCN([C@@H]2c3ccccc3[C@@H]3[C@H](c4ccccc42)C3(F)F)CC1 [Zosuquidar]
In short: as §1

Cabozantinib = compound: COc1cc2nccc(Oc3ccc(NC(=O)C4(C(=O)Nc5ccc(F)cc5)CC4)cc3)c2cc1OC [Cabozantinib]
In short: as §1

Cell Line	relative viability (Kobe2602 + Trametinib; first compound 0.2 µM)	relative viability (Kobe2602 + Trametinib; first compound 0.6325 µM)	relative viability (Kobe2602 + Trametinib; first compound 2 µM)	relative viability (Kobe2602 + Trametinib; first compound 6.325 µM)	relative viability (Kobe2602 + Trametinib; first compound 20 µM)	relative viability (Kobe2602; 0.2 µM)	relative viability (Kobe2602; 0.6325 µM)	relative viability (Kobe2602; 2 µM)	relative viability (Kobe2602; 6.325 µM)	relative viability (Kobe2602; 20 µM)	relative viability (Zosuquidar; 0.01 µM)	relative viability (Zosuquidar; 0.03162 µM)	relative viability (Zosuquidar; 0.1 µM)	relative viability (Zosuquidar; 0.3162 µM)	relative viability (Zosuquidar; 1 µM)	relative viability (Cabozantinib; 0.02 µM)	relative viability (Cabozantinib; 0.06325 µM)	relative viability (Cabozantinib; 0.2 µM)	relative viability (Cabozantinib; 0.6325 µM)	relative viability (Cabozantinib; 2 µM)
NCI-H358	0.138	0.15	0.135	0.16	0.141	0.993	1.03	0.862	0.828	0.97	0.959	0.914	0.871	0.878	0.937	0.936	1.02	0.833	0.981	0.813
NCI-H2085	0.614	0.516	0.491	0.409	0.514	1.02	0.994	0.959	0.991	0.96	0.977	0.955	0.797	1	0.959	1.07	1.09	0.942	1.05	1.01
NCI-H1792	0.445	0.446	0.401	0.564	0.366	0.99	1.02	0.848	0.978	1.07	0.833	0.94	0.729	0.954	0.834		1.21	0.915	0.894	0.898
NCI-H2405	0.644	0.712	0.621	0.66	0.669	1.04	1.09	0.964	1.09	1.14	1.1	0.942	0.981	1.03	0.93	0.807	1.11	1.09	1.01	1.08
201T	0.711	0.715	0.741	0.771	0.677	1	1.01	0.946	0.997	0.963	0.947	0.979	0.883	0.985	0.982	0.868	1.1	0.967	1	0.965
NCI-H1755	0.825	0.728	0.779	0.766	0.726	0.962	0.971	0.993	0.985	0.994	0.995	1.01	0.94	1.05	1.01	0.994	1.04	0.977	0.923	0.857
NCI-H650	0.943	0.961	1	0.993	0.845	0.913	1.11	0.885	0.986	0.905	1.02	0.836	0.807	1.12	0.851	0.745	0.966	1.12	0.86	0.899
NCI-H1651	0.822	0.827	0.847	0.87	0.875	0.982	1.01	0.981	0.967	1.01	0.985	1.02	0.911	1.02	0.983	0.95	1.07	0.92	0.981	0.968
NCI-H1437	0.458	0.463	0.519	0.603	0.419	0.958	0.978	1	0.983	0.96	0.976	0.979	0.91	1.09	0.942	1.05	1.08	0.946	0.998	0.975
NCI-H1975	0.332	0.333	0.328	0.29	0.352	0.995	0.978	0.852	0.836	0.905	0.934	0.824	0.937	1.06	0.959	1.03	1.1	0.961	0.873	0.855
BEN	1.01	1.16	1.17	1.06	1.14	1.14	1.02	0.925	0.981	1.01	0.994	0.876	0.801	0.938	0.977	0.918	1.11	1	0.95	0.808
NCI-H460		0.198	0.183	0.166	0.111	1.03	0.955	0.986	1.04	0.963	0.993	0.964	0.969	1.02	0.974	1.05	1.06	1.05	0.976	1.03
NCI-H1944	0.418	0.409	0.404	0.442	0.423	1	1.07	0.899	0.992	0.987	0.942	0.88	0.847	1.08	0.909	0.826	1.01	0.961	1.01	0.916
HOP-62	0.446	0.39	0.355	0.415	0.415	0.983	1.07	0.952	1.04	1.01	1.03	1.05	1.02	1.05	0.975	1.1	1.1	1.16	1.08	1.09
HCC-366	0.284	0.386	0.31	0.297	0.302	0.985	0.982	1.02	1.02	1.07	1	1.04	0.977	1.04	0.986	1.06	1.02	0.99	0.967	0.995
NCI-H3122	0.257	0.242	0.211	0.214	0.238	1.01	0.971	1.01	0.985	1.04	0.984	0.952	0.919	1.07	0.987	0.995	1.05	1.03	0.983	0.998
